In patent publication US20230201236A1, “SPIROCYCLIC NUCLEOSIDE ANALOGUES FOR THE TREATMENT OF HEPATITIS E” (priority 2020, published 2023):

Key:
Type in all cases: cell-based
[1] = test system: HEV Genotype 3 replicon Kernow-C1 p6/luc; test: Antiviral activity against HEV Genotype 3 replicon Kernow-C1 p6/luc in Huh7 cells (Gaussia luciferase); settings: Huh-7, 96 h, luminescence after 4 days, 4PL fit, two experiments, read-out: relative EC50
Method: The antiviral activity of compounds was tested against the HEV Genotype 3 replicon Kernow-C1 p6/luc (Kernow-C1 p6: GenBank accession number JQ679013) as previously described (Debing Y, Emerson S U, Wang Y, Pan Q, Balzarini J, Dallmeier K, Neyts J. 2013. Ribavirin Inhibits In Vitro Hepatitis E Virus Replication through Depletion of Cellular GTP Pools and Is Moderately Synergistic with Alpha Interferon. Antimicrob Agents Chemother, 58:267-273). To this end, Huh7 cells were electroporated with capped in vitro transcribed Kernow-C1 p6/luc-RNA produced from Mlul-digested plasmid DNA (Shukla P, Nguyen H T, Faulk K, Mather K, Torian U, Engle R E, Emerson SU. 2012. Adaptation of a genotype 3 hepatitis E virus to efficient growth in cell culture depends on an inserted human gene segment acquired by recombination. J. Virol. 86:5697-5707), seeded in 96-well plates containing serial dilutions of the test compounds. For virus control (VC) compound was omitted. After 4 days, luminescence produced by the secreted Gaussia luciferase was quantified using the Promega Renilla luciferase kit and corrected for background with a cell control (CC, viral RNA and compound omitted). The relative 50% effective concentration (EC50) is defined as the concentration of compound that causes a 50% reduction in the Luc signal, relative to the signal range. The relative EC50 was based on two experiments and derived by a nonlinear regression fit in GraphPad using a four-parameter logistic (4PL) model.

[2] = Viability evaluation (MTS/PMS) of Huh7 cells transfected with Kernow-C1 p6/luc RNA; settings: human, highest tested concentration 50 μM, read-out: relative CC50
Method: (§1) For viability evaluation, medium was removed and cells were subsequently incubated with MTS/PMS solution (3-(4,5-dimethylthiazol-2-yl)-5-(3-carboxymethoxyphenyl)-2-(4-sulfophenyl)-2H-tetrazolium/phenazinemethosulfate), which is metabolized to produce a brown, water-soluble product that is quantified after 1 h at 37° C. by absorbance read-out at 498 nm. Obtained values are expressed as percentage of untreated RNA-transfected control condition. The relative CC50 represents the concentration at which the metabolic activity of the cells would be reduced to 50% of the metabolic activity of untreated cells and was based on two or three experiments and derived by a nonlinear regression fit in GraphPad using a four-parameter logistic (4PL) model.

[3] = Viability evaluation (MTS/PMS) of Huh7 cells transfected with the rat HEV replicon; settings: human, highest tested concentration 50 μM
Method: as §1, with “as […]” for “as percentage”, “The” for “The relative”, “cells (and” for “cells and”, “two” for “two or three”, “a two-parameter” for “a four-parameter”, “logistic model while keeping the slope variable).” for “logistic (4PL) model.”

[4] = test system: rat HEV replicon LA-B350/luc; test: Antiviral activity against rat HEV replicon LA-B350/luc in Huh7 cells (Gaussia luciferase); settings: Huh-7, 72 h, luminescence after 3 days, two or three experiments
Method: The antiviral activity of compounds was tested against the rat HEV replicon LA-B350/luc as described in Debing et al (Dis Model Mech 2016; 9:1203-10). To this end, Huh7 cells were electroporated with capped viral RNA produced from plasmid pLA-B350/luc, plated in 96-well plates and treated with each of compounds at selected concentrations. For virus control (VC), compound was omitted. After 3 days, luminescence produced by the secreted Gaussia luciferase was quantified using the Promega Renilla luciferase kit and corrected for background with a cell control (CC, viral RNA and compound omitted). The 50% effective concentration (EC50) is defined as the concentration of compound that causes a 50% reduction in the Luc signal compared to that of average corrected VC. The EC50 was based on two or three experiments and derived by a nonlinear regression fit in GraphPad using a two-parameter logistic model while keeping the slope variable.

Compound | EC50 [1] | CC50 [2] | CC50 [3] | EC50 [4]
CC(C)OC(=O)C(C)NP(=O)(OC[C@@]1(N=[N+]=[N-])O[C@@H](n2ccc(=O)[nH]c2=O)[C@@]2(CCS2)[C@@H]1O)Oc1ccccc1 (stereo in doubt) [Compound 1, isopropyl (2R)-2-[[[(4R,5R,6R,8R)-6-azido-8-(2,4-dioxopyrimidin-1-yl)-5-hydroxy-7-oxa-1-thiaspiro[3.4]octan-6-yl]methoxy-phenoxy-phosphoryl]amino]propanoate] | > 50 µM | > 50 µM | > 50 µM | 0.74 µM
CC(C)OC(=O)[C@H](C)NP(=O)(OC[C@@]1(F)O[C@@H](n2ccc(=O)[nH]c2=O)[C@@]2(CCS2)[C@@H]1O)Oc1ccccc1 (stereo partly drawn) [Compound 2, (2S)-isopropyl 2-(((((4R,5R,7S,8R)-5-(2,4-dioxo-3,4-dihydropyrimidin-1(2H)-yl)-7-fluoro-8-hydroxy-6-oxa-1-thiaspiro[3.4]octan-7-yl)methoxy)(phenoxy)phosphoryl)-amino)propanoate] | – | > 50 µM | > 50 µM | 5.9 µM
CC(C)OC(=O)[C@H](C)NP(=O)(OC[C@H]1O[C@@H](n2ccc(=O)[nH]c2=O)[C@@]2(CCS2)[C@@H]1O)Oc1ccccc1 (stereo partly drawn) [Compound 3, (2S)-isopropyl 2-(((((4R,5R,7R,8R)-5-(2,4-dioxo-3,4-dihydropyrimidin-1(2H)-yl)-8-hydroxy-6-oxa-1-thiaspiro[3.4]octan-7-yl)methoxy)(phenoxy)phosphoryl)amino)propanoate] | > 50 µM | > 50 µM | > 50 µM | 27 µM
COC(=O)C(C)(C)NP(=O)(OC[C@H]1O[C@@H](n2ccc(=O)[nH]c2=O)[C@@]2(CCO2)[C@@H]1O)Oc1ccccc1 (stereo partly drawn) [Compound 4, methyl 2-[[[(4R,5R,7R,8R)-5-(2,4-dioxo-3,4-dihydropyrimidin-1(2H)-yl)-8-hydroxy-1,6-dioxaspiro[3.4]octan-7-yl]methoxy](phenoxy)phosphorylamino]-2-methylpropanoate] | 0.53 µM | > 50 µM | > 50 µM | 0.36 µM
